In PubChem BioAssay (NCI):
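The concentration for 50% growth inhibition is given as GI50. TGI: total growth inhibition.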

Tests used:
Assay in all cases: inhibition of tumour cell growth, NCI panel, 384-well format; in the data active = GI50 below about 0.43 µM; inactive = the rest
HOP-92 NSCLC = system: HOP-92 NSCLC
HS 578T breast = system: HS 578T breast
T-47D breast = system: T-47D breast
OVCAR-3 ovarian = system: OVCAR-3 ovarian
NCI-H23 lung = system: NCI-H23 lung
SW-620 colon = system: SW-620 colon
NCI-H522 lung = system: NCI-H522 lung
DU-145 prostate = system: DU-145 prostate
SN12C renal = system: SN12C renal
PC-3 prostate = system: PC-3 prostate
OVCAR-4 ovarian = system: OVCAR-4 ovarian
OVCAR-5 ovarian = system: OVCAR-5 ovarian
MALME-3M melanoma = system: MALME-3M melanoma
SK-MEL-2 melanoma = system: SK-MEL-2 melanoma
SNB-75 CNS = system: SNB-75 CNS
MCF7 breast = system: MCF7 breast
UACC-257 melanoma = system: UACC-257 melanoma
MOLT-4 leukemia = system: MOLT-4 leukemia
HCC-2998 colon = system: HCC-2998 colon
K-562 leukemia = system: K-562 leukemia
MDA-MB-468 breast = system: MDA-MB-468 breast
A549 NSCLC = system: A549 NSCLC
OVCAR-8 ovarian = system: OVCAR-8 ovarian
HOP-62 NSCLC = system: HOP-62 NSCLC
CCRF-CEM leukemia = system: CCRF-CEM leukemia
SF-539 CNS = system: SF-539 CNS
SF-295 CNS = system: SF-295 CNS
ACHN renal = system: ACHN renal
U251 glioblastoma = system: U251 glioblastoma
SK-OV-3 ovarian = system: SK-OV-3 ovarian
HCT-116 colon = system: HCT-116 colon
RPMI-8226 leukemia = system: RPMI-8226 leukemia
NCI-H322M lung = system: NCI-H322M lung
RXF 393 renal = system: RXF 393 renal
NCI-H460 NSCLC = system: NCI-H460 NSCLC
EKVX NSCLC = system: EKVX NSCLC
TK-10 renal = system: TK-10 renal
SNB-19 CNS = system: SNB-19 CNS
A498 renal = system: A498 renal
CAKI-1 renal = system: CAKI-1 renal
786-0 renal = system: 786-0 renal
SK-MEL-28 melanoma = system: SK-MEL-28 melanoma
HL-60(TB) leukemia = system: HL-60(TB) leukemia
SF-268 CNS = system: SF-268 CNS
HCT-15 colon = system: HCT-15 colon
SK-MEL-5 melanoma = system: SK-MEL-5 melanoma
NCI-H226 lung = system: NCI-H226 lung
COLO 205 colon = system: COLO 205 colon
NCI/ADR-RES ovarian = system: NCI/ADR-RES ovarian
IGROV1 ovarian = system: IGROV1 ovarian
UO-31 renal = system: UO-31 renal
LOX IMVI melanoma = system: LOX IMVI melanoma
MDA-MB-231 breast = system: MDA-MB-231 breast
SR leukemia = system: SR leukemia
UACC-62 melanoma = system: UACC-62 melanoma
M14 melanoma = system: M14 melanoma
KM12 colon = system: KM12 colon
HT29 colon = system: HT29 colon

COc1cc2ncnc3c2cc1OCCCCCN(C)Cc1ccc(Br)cc1N3
> 22 µM: TGI (SK-MEL-2 melanoma)
> 100 µM: TGI (HOP-92 NSCLC) | TGI (HS 578T breast) | TGI (OVCAR-3 ovarian) | TGI (NCI-H23 lung) | TGI (SW-620 colon) | TGI (DU-145 prostate) | TGI (SN12C renal) | TGI (PC-3 prostate) | TGI (OVCAR-4 ovarian) | TGI (OVCAR-5 ovarian) | TGI (MALME-3M melanoma) | TGI (SNB-75 CNS) | TGI (MCF7 breast) | TGI (UACC-257 melanoma) | TGI (HCC-2998 colon) | TGI (K-562 leukemia) | TGI (A549 NSCLC) | TGI (OVCAR-8 ovarian) | TGI (HOP-62 NSCLC) | TGI (CCRF-CEM leukemia) | TGI (SF-539 CNS) | TGI (SF-295 CNS) | TGI (U251 glioblastoma) | TGI (HCT-116 colon) | TGI (RXF 393 renal) | TGI (NCI-H460 NSCLC) | TGI (EKVX NSCLC) | TGI (TK-10 renal) | TGI (SNB-19 CNS) | TGI (A498 renal) | TGI (CAKI-1 renal) | TGI (786-0 renal) | TGI (SK-MEL-28 melanoma) | TGI (SF-268 CNS) | TGI (HCT-15 colon) | TGI (SK-MEL-5 melanoma) | TGI (NCI-H226 lung) | TGI (COLO 205 colon) | TGI (NCI/ADR-RES ovarian) | TGI (UO-31 renal) | TGI (LOX IMVI melanoma) | TGI (MDA-MB-231 breast) | TGI (UACC-62 melanoma) | TGI (M14 melanoma) | TGI (KM12 colon) | TGI (HT29 colon)
5.17 µM: TGI (SR leukemia)
356 nM: TGI (MDA-MB-468 breast)
1460 nM: TGI (NCI-H322M lung)
> 19.9 µM: TGI (ACHN renal)
2850 nM: TGI (IGROV1 ovarian)
active: GI50 (NCI-H522 lung) 287 nM | GI50 (MDA-MB-468 breast) 90.9 nM | GI50 (ACHN renal) 263 nM | GI50 (NCI-H322M lung) 191 nM | GI50 (TK-10 renal) 352 nM | GI50 (A498 renal) 383 nM | GI50 (IGROV1 ovarian) 419 nM
5.34 µM: TGI (SK-OV-3 ovarian)
> 20.6 µM: TGI (RPMI-8226 leukemia)
3.28 µM: TGI (HL-60(TB) leukemia)
> 20.7 µM: TGI (T-47D breast)
2970 nM: TGI (NCI-H522 lung)
inactive: GI50 (HOP-92 NSCLC) 3.32 µM | GI50 (HS 578T breast) 1840 nM | GI50 (T-47D breast) 798 nM | GI50 (OVCAR-3 ovarian) 1070 nM | GI50 (NCI-H23 lung) 4.73 µM | GI50 (SW-620 colon) 6.27 µM | GI50 (DU-145 prostate) 1520 nM | GI50 (SN12C renal) 1100 nM | GI50 (PC-3 prostate) 4.02 µM | GI50 (OVCAR-4 ovarian) 2390 nM | GI50 (OVCAR-5 ovarian) 3.95 µM | GI50 (MALME-3M melanoma) 3.33 µM | GI50 (SK-MEL-2 melanoma) 2220 nM | GI50 (SNB-75 CNS) 4.58 µM | GI50 (MCF7 breast) 8.25 µM | GI50 (UACC-257 melanoma) > 100 µM | GI50 (MOLT-4 leukemia) 2150 nM | GI50 (HCC-2998 colon) 5.37 µM | GI50 (K-562 leukemia) 3.88 µM | GI50 (A549 NSCLC) 2640 nM | GI50 (OVCAR-8 ovarian) 3.02 µM | GI50 (HOP-62 NSCLC) 4.74 µM | GI50 (CCRF-CEM leukemia) 4 µM | GI50 (SF-539 CNS) > 100 µM | GI50 (SF-295 CNS) 7.08 µM | GI50 (U251 glioblastoma) 5.7 µM | GI50 (SK-OV-3 ovarian) 643 nM | GI50 (HCT-116 colon) 3.8 µM | GI50 (RPMI-8226 leukemia) 2580 nM | GI50 (RXF 393 renal) 3.22 µM | GI50 (NCI-H460 NSCLC) 3.37 µM | GI50 (EKVX NSCLC) 612 nM | GI50 (SNB-19 CNS) > 100 µM | GI50 (CAKI-1 renal) 1360 nM | GI50 ([…]-0 renal) 3.92 µM | GI50 (SK-MEL-28 melanoma) > 27.3 µM | GI50 (HL-60(TB) leukemia) 1660 nM | GI50 (SF-268 CNS) > 100 µM | GI50 (HCT-15 colon) 2860 nM | GI50 (SK-MEL-5 melanoma) 3.32 µM | GI50 (NCI-H226 lung) 5.87 µM | GI50 (COLO 205 colon) > 21.1 µM | GI50 (NCI/ADR-RES ovarian) 3.03 µM | GI50 (UO-31 renal) 1450 nM | GI50 (LOX IMVI melanoma) 3.67 µM | GI50 (MDA-MB-231 breast) 7.15 µM | GI50 (SR leukemia) 1720 nM | GI50 (UACC-62 melanoma) 2160 nM | GI50 (M14 melanoma) 3.82 µM | GI50 (KM12 colon) 7.47 µM | GI50 (HT29 colon) > 20.9 µM
